According to patent US4346076A, “Bis-tetrazoylmethyl substituted cephalosporin antibiotics” (Eli Lilly and Company, priority 1980, dated 1982):
Like-named read-outs stand apart in the source and are kept apart here.

Key:
Assay in all cases: in vitro antibacterial activity, agar dilution
Format in all cases: cell-based
[1] = test system: Bordetella bronchoseptica; details: strain 16, read-out: Minimum Inhibitory Concentration
Description: (§1) The bis-tetrazol-thiomethyl substituted cephalosporins of this invention are broad spectrum antibiotics which inhibit the growth of both gram positive and gram negative microorganisms which are pathogenic to man and animals. […] The following Table 2 lists the minimum inhibitory concentrations of representative compounds of the invention.
(§2) The data in TABLE 2 were obtained in the agar dilution test method using Mueller-Hinton agar containing two percent Supplement C (Difco). Serial two-fold dilutions were run with the highest concentration on test at 128 mcg/ml.

Citrobacter freundii = details: strain CF17, read-out: Minimum Inhibitory Concentration
Description: as §1, §2

Enterobacter aerogenes = details: Klebsiella aerogenes, read-out: Minimum Inhibitory Concentration
Description: as §1, §2

Enterobacter cloacae = test system: Enterobacter cloacae
Description: as §1, §2

Escherichia coli = test system: Escherichia coli
Description: as §1, §2

Haemophilus influenzae = details: Haemophilus influenzae, read-out: Minimum Inhibitory Concentration
Description: as §1, §2

Klebsiella sp. = test system: Klebsiella sp.
Description: as §1, §2

Proteus inconstans = details: Providencia alcalifaciens; strain PR33; read-out: Minimum Inhibitory Concentration
Description: as §1, §2

Proteus morganii = details: Morganella morganii; strain PR15; read-out: Minimum Inhibitory Concentration
Description: as §1, §2

Proteus rettgeri = details: Providencia rettgeri, read-out: Minimum Inhibitory Concentration
Description: as §1, §2

Pseudomonas aeruginosa = test system: Pseudomonas aeruginosa
Description: as §1, §2

Salmonella sp. = test system: Salmonella sp.
Description: as §1, §2

Serratia marcescens = test system: Serratia marcescens
Description: as §1, §2

Shigella sonnei = details: strain N9, read-out: Minimum Inhibitory Concentration
Description: as §1, §2

Staphylococcus aureus = test system: Staphylococcus aureus
Description: as §1, §2

[2] = test system: Staphylococcus epidermidis
Description: as §1, §2

Streptococcus Group A = details: strain C203; read-out: Minimum Inhibitory Concentration
Description: as §1, §2

Streptococcus Group D = details: read-out: Minimum Inhibitory Concentration
Description: as §1, §2

Streptococcus pneumoniae = details: strain PARK, read-out: Minimum Inhibitory Concentration
Description: as §1, §2

[3] = strain 265A, read-out: Minimum Inhibitory Concentration
[4] = strain EB5, read-out: Minimum Inhibitory Concentration
[5] = strain EC14, read-out: Minimum Inhibitory Concentration
[6] = strain N10, read-out: Minimum Inhibitory Concentration
[7] = strain TEM, read-out: Minimum Inhibitory Concentration
[8] = strain KAE, read-out: Minimum Inhibitory Concentration
[9] = strain X26, read-out: Minimum Inhibitory Concentration
[10] = strain Ps18, read-out: Minimum Inhibitory Concentration
[11] = strain X239, read-out: Minimum Inhibitory Concentration
[12] = strain X528, read-out: Minimum Inhibitory Concentration
[13] = strain 1335, read-out: Minimum Inhibitory Concentration
[14] = strain X514, read-out: Minimum Inhibitory Concentration
[15] = strain SE3, read-out: Minimum Inhibitory Concentration
[16] = strain X93, read-out: Minimum Inhibitory Concentration
[17] = read-out: Minimum Inhibitory Concentration
[18] = strain V41, read-out: Minimum Inhibitory Concentration
[19] = strain X1.1, read-out: Minimum Inhibitory Concentration
[20] = strain X400, read-out: Minimum Inhibitory Concentration
[21] = strain EPI1, read-out: Minimum Inhibitory Concentration
[22] = strain EPI2, read-out: Minimum Inhibitory Concentration

Measured: MIC

CO[C@@]1(NC(=O)Cc2cccs2)C(=O)N2C(C(=O)O)=C(CSc3nnnn3Cc3nnn[nH]3)CS[C@@H]21 [A, 7-(2-thienylacetamido)-7-methoxy-3-[1-(1H-tetrazole-5-ylmethyl)-1H-tetrazole-5-ylthiomethyl]-3-cephem-4-carboxylic acid]
0.25 mg/L: Haemophilus influenzae; strain 76, resistant strain | Haemophilus influenzae; strain C.L., sensitive strain
16 mg/L: Serratia marcescens; [16] | Staphylococcus aureus; [20] | [2]; [21]
> 128 mg/L: [1] | Citrobacter freundii | Enterobacter aerogenes; strain C32 | Enterobacter aerogenes; strain EB17 | Enterobacter cloacae; [3] | Enterobacter cloacae; [4] | Pseudomonas aeruginosa; [10] | Pseudomonas aeruginosa; [11] | Pseudomonas aeruginosa; [12] | Streptococcus Group D; strain 9960
2 mg/L: Salmonella sp.; [13] | Staphylococcus aureus; [18] | Staphylococcus aureus; [19]
0.5 mg/L: Streptococcus Group A
8 mg/L: Escherichia coli; [6] | Shigella sonnei | Staphylococcus aureus; [17] | [2]; [22]
4 mg/L: Enterobacter aerogenes; strain X68 | Escherichia coli; [5] | Escherichia coli; [7] | Klebsiella sp.; [8] | Proteus inconstans | Proteus rettgeri; strain PR7 | Streptococcus pneumoniae
64 mg/L: Proteus morganii | Serratia marcescens; [15] | Streptococcus Group D; strain X66
1 mg/L: Klebsiella sp.; [9] | Proteus rettgeri; strain C24 | Salmonella sp.; [14]

Cn1nnnc1Cn1nnnc1SCC1=C(C(=O)O)N2C(=O)[C@@H](NC(=O)Cc3cccs3)[C@H]2SC1 [B]
128 mg/L: Streptococcus Group D; strain X66
64 mg/L: Proteus inconstans | Proteus morganii | Streptococcus Group D; strain 9960
2 mg/L: Escherichia coli; [5] | Staphylococcus aureus; [18] | Streptococcus pneumoniae
0.5 mg/L: Enterobacter aerogenes; strain X68 | Haemophilus influenzae; strain 76, resistant strain | Klebsiella sp.; [9] | Salmonella sp.; [14] | Staphylococcus aureus; [19]
4 mg/L: Escherichia coli; [6] | Proteus rettgeri; strain PR7 | Shigella sonnei | Staphylococcus aureus; [17] | [2]; [21] | [2]; [22]
32 mg/L: Enterobacter aerogenes; strain C32 | Staphylococcus aureus; [20]
16 mg/L: Enterobacter aerogenes; strain EB17
1 mg/L: Haemophilus influenzae; strain C.L., sensitive strain | Salmonella sp.; [13] | Streptococcus Group A
> 128 mg/L: Citrobacter freundii | Enterobacter cloacae; [3] | Enterobacter cloacae; [4] | Klebsiella sp.; [8] | Pseudomonas aeruginosa; [10] | Pseudomonas aeruginosa; [11] | Pseudomonas aeruginosa; [12] | Serratia marcescens; [15] | Serratia marcescens; [16]
8 mg/L: [1] | Escherichia coli; [7] | Proteus rettgeri; strain C24

O=CO[C@@H](C(=O)N[C@@H]1C(=O)N2C(C(=O)O)=C(CSc3nnnn3Cc3nnn[nH]3)CS[C@H]12)c1ccccc1 [C]
128 mg/L: Enterobacter cloacae; [4] | Staphylococcus aureus; [20] | Streptococcus Group D; strain 9960
8 mg/L: Escherichia coli; [7] | Staphylococcus aureus; [18] | [2]; [21]
32 mg/L: Serratia marcescens; [16] | [2]; [22]
16 mg/L: [1] | Staphylococcus aureus; [17]
> 128 mg/L: Citrobacter freundii | Enterobacter cloacae; [3] | Klebsiella sp.; [8] | Pseudomonas aeruginosa; [10] | Pseudomonas aeruginosa; [11] | Pseudomonas aeruginosa; [12] | Serratia marcescens; [15] | Streptococcus Group D; strain X66
0.25 mg/L: Enterobacter aerogenes; strain X68 | Escherichia coli; [5] | Streptococcus pneumoniae
1 mg/L: Salmonella sp.; [14] | Shigella sonnei | Staphylococcus aureus; [19]
4 mg/L: Enterobacter aerogenes; strain C32 | Haemophilus influenzae; strain 251, resistant strain | Haemophilus influenzae; strain Brun, sensitive strain | Proteus rettgeri; strain PR7
0.5 mg/L: Proteus rettgeri; strain C24 | Streptococcus Group A
2 mg/L: Enterobacter aerogenes; strain EB17 | Escherichia coli; [6] | Klebsiella sp.; [9] | Proteus inconstans | Proteus morganii | Salmonella sp.; [13]
